# Assay results: US20240316012A1, “METHODS FOR TREATING LYMPHOMA” (Northwestern University, priority 2023, published 2024)
# Experiments:
# [1] = system: PDCD1-mutant lymphoma cells (primary CTCL); assay: Inhibitor treatment of human cells in vitro, division index, PDCD1-mutant CTCL cells; format: cell-based; details: 2-DG 1 mM, everolimus 0.1 μM, BMS-303141 10 μM; anti-CD3/anti-CD28 beads, 6 days; FIG. 7E
# Procedure: (§1) FIGS. 7A-7H show ACLY dependency and AP-1 activation in human PDCD1 defective T-NHL. […] CNA, copy number aberrations. FIG. 7B GSEA for the indicated gene sets based on RNA-seq data from the 21 CTCL patients shown in (a). NES, normalized enrichment score; FDR, false discovery rate. […] P=one-way ANOVA and two-sided Student's t-test. Shown are the mean±SD and individual data points. […] FACS-sorted malignant cells were stimulated with anti-CD3/anti-CD28 beads, and 2-NBDG uptake was determined at the indicated time points. P=two-sided Student's t-test. Shown are the mean±SEM and individual data points. […] CFSE, carboxyfluorescein succinimidyl ester. P=two-sided Student's t-test. The data are presented as the mean±SEM and individual data points. […] Legend as in (5a). […] FIG. 7H GSEA for the indicated gene sets with RNA-seq data from 21 CTCL PDCD1mut” or “PDCD1 wt, and three patients with hyperprogression. NES, normalized enrichment score; FDR, false discovery rate. FIGS. 7A and 7B, Data from a single experiment with 21 patients. FIGS. 7C and 7D, Data from one experiment with three patients per group and three healthy donors. FIG. 7E, Data from one experiment with three patients and three healthy donors. FIGS. 7F and 7G, Data from one experiment with three patients per group. FIG. 7H, Data from a single experiment.
# (§2) Isolation of primary human CTCL cells. This study was approved by the Northwestern University Institutional Review Board. Patients provided informed consent for inclusion in the study. […] The tumor burden for each patient was determined using well-validated clinical markers, taking whichever value was higher between Sezary cell counts or the CD26 negative cell number by clinical flow cytometry. These were analyzed in conjunction with white blood cell and absolute lymphocyte counts.
# (§3) Inhibitor treatment of human cells in vitro Malignant CTCL cells and CD4^+ T cells from healthy donors were isolated as previously described. […] After 6 days, the cells were analyzed by flow cytometry, and the division index was determined using the FlowJo proliferation tool (v10.6, FlowJo LLC).
# [2] = system: PD-1 wild-type tumors (primary CTCL); assay: Inhibitor treatment of human cells in vitro, division index, PD-1 wild-type CTCL cells; format: cell-based; details: 2-DG 1 mM, everolimus 0.1 μM, BMS-303141 10 μM; 6 days; FIG. 7E
# Procedure: as §1, §2, §3
compound,measurement,setting,value
COc1ccc(-c2ccccc2)cc1NS(=O)(=O)c1cc(Cl)cc(Cl)c1O [BMS-303141],"viability, division and proliferation of PDCD1-mutant cancer cells (relative division index)",[1],significantly impaired cell proliferation
same,response of stage-matched PD-1 wild-type tumors (relative division index),[2],resistant
"O=CC[C@@H](O)[C@H](O)[C@H](O)CO [2-DG, 2-deoxy-D-glucose]","viability, division and proliferation of PDCD1-mutant cancer cells (relative division index)",[1],significantly impaired cell proliferation
same,response of stage-matched PD-1 wild-type tumors (relative division index),[2],resistant
